Test results: patent publication US20200000775A1, “ATTENUATION OF NEUROPATHIC PAIN AFTER SPINAL CORD INJURY” (University of Kentucky Research Foundation, priority 2018, published 2020)

What was measured:
endosomal EEA1-NR1 = test: Immunofluorescence of endosomal EEA1-NMDAR1 (NR1) dual signal in spinal dorsal horn after excitotoxic SCI; type: in vivo, rat; conditions: post-treatment, 28 days post-excitotoxic injury; vs vehicle, p<0.001
From the text: (§1) Twenty-four male SD rats were randomly assigned to three groups: (A) FluBZ treatment plus intraspinal injection of QUIS (n=10); (B) vehicle treatment plus intraspinal injection of QUIS (n=10); and (C) Sham operation (intraspinal injection of saline, n=4). Assessment of excessive grooming behavior was used to evaluate the effects of FluBZ or vehicle on the development of the spontaneous pain behavior following excitotoxic SCI. The survival time of animals consisted of a period of 4 weeks or until tissue damage progressed beyond the superficial layers of skin, at which time (<4 weeks) animals were euthanized. FluBZ (10 mg/kg/day) or vehicle was intraperitoneally injected once daily for a period of 7 days post-injection of QUIS. The FluBZ or vehicle treatment began at 3 h post-QUIS injection. FluBZ (Sigma) was dissolved in 0.9% saline plus 0.01% Tween 80 (Vehicle). […]
(§2) The stereological analysis of image data within dorsal horn of spinal cord in sham or QUIS-injured animals with treatment of FluBZ or vehicle will be performed using NIS-Elements AR program. Serial double-labeled immunofluorescent signal images of spinal cord sections at lesion epicenter and 2 mm rostral and caudal to the lesion site were analyzed using methods of Binary Layers and Automated Measurement Results. […]

mitochondrial cyclin B1 = test: Immunofluorescence of mitochondrial cyclin B1 (cyclin B1/VDAC1 dual signal) in spinal dorsal horn after excitotoxic SCI; type: in vivo, rat; conditions: 10 mg/kg/day for 7 days post-injury; 28 days following injury; vs vehicle, p<0.001
From the text: as §1, §2

[1] = cited from earlier work
[2] = tested on: α-tubulin N-acetyltransferase ATAT1/MEC-17; test: Immunofluorescence of α-tubulin acetyltransferase MEC-17 in spinal dorsal horn after excitotoxic SCI; type: in vivo, rat; conditions: IP for 7 days from 3 h post-QUIS; lesion site, 28 days after injury; vs vehicle, p<0.01
From the text: as §1, §2

endosomal EEA1-pERK1/2 = test: Immunofluorescence of endosomal EEA1-pERK1/2 dual signal in spinal dorsal horn after excitotoxic SCI; type: in vivo, rat; conditions: IP treatment, 28 days post-injury; vs vehicle, p<0.001
From the text: as §1, §2

[3] = rats, pigs, sheep, dogs or humans; cited from earlier work
acetylated α-tubulin = test: Immunofluorescence of acetylated α-tubulin in spinal dorsal horn after excitotoxic SCI; type: in vivo, rat; conditions: IP for 7 days from 3 h post-QUIS; lesion site, 28 days after injury; vs vehicle, p<0.001
From the text: as §1, §2

[4] = tested on: rat excitotoxic SCI pain model; test: Spontaneous pain-related excessive grooming behavior after excitotoxic SCI (intraspinal QUIS); type: in vivo
From the text: Male Sprague-Dawley (SD) adult rats at 3 months, weighing 220-250 g, were used (Charles River, Indianapolis, Ind.). Rats were kept under standard housing conditions (12:12 light and dark cycle) with food and water ad libitum for at least 1 week following arrival in an enclosed, pathogen-free animal facility. All experimental procedures were approved and carried out in accordance with the Guidelines of the US National Institutes of Health and Institutional Animal Care and Use Committee (IACUC) of the University of Kentucky.
Excitotoxic SCI was produced by intraspinal injection of the glutamatergic AMPA/metabotropic receptor agonist quisqualic acid (QUIS) as previously described. Briefly, rats were anesthetized with a mixture of ketamine and xylazine (intraperitoneally, IP). Animals were placed in a stereotaxic unit and the spinal column immobilized with a vertebral clamp. One injection window for intraspinal injection was made by laminectomy between spinal segments T12-L1. Injections of 125 mM QUIS was made unilaterally at three levels of the cord by convection enhanced delivery. Injections, spaced 0.3 mm apart, were made at a depth of 1000 μm below the surface in segments T12-L1 between the dorsal root entry zone and the dorsal vein. These coordinates place injections in the center of the gray matter between spinal laminae IV-VI. The total volume of QUIS injected was 1.2 μl (0.4 μl each site, delivered over 4 minutes). Following injections, muscles were sutured over the laminectomy site, and the skin closed with wound clips.
as §1, with “euthanized.” for “euthanized. FluBZ (10 mg/kg/day) or vehicle was intraperitoneally injected once daily for a period of 7 days post-injection of QUIS. The FluBZ or vehicle treatment began at 3 h post-QUIS injection. FluBZ (Sigma) was dissolved in 0.9% saline plus 0.01% Tween 80 (Vehicle).”
Assessment of the spontaneous pain-related excessive grooming behavior was performed as described in previous studies. […] Quantitative analysis of spontaneous excessive grooming pain behavior consisted of the incidence, onset time, mean area of skin damage, and severity of overgrooming pain behaviors for all animals as previously described.
Data related to the onset time, area of grooming-induced skin damage, and immunofluorescent number of object and mean intensity are expressed as mean ±standard error of mean (SEM) and analyzed by using a commercially available computer program (StatView; SAS Institute, Inc, Cary, N.C.). […]

Row | Compound | endosomal EEA1-NR1 fluorescent signals in the dorsal horn (endosomal EEA1-NR1) | mitochondrial cyclin b1 activity in the dorsal horn (mitochondrial cyclin B1) | solubility in aqueous systems [1] | expression of acetyltransferase MEC-17 in the spinal dorsal horn [2] | endosomal EEA1-pERK1/2 fluorescent binary number object, binary area fraction, binary area, and mean intensity in the dorsal horn (endosomal EEA1-pERK1/2) | bioavailability after oral treatment [3] | α-tubulin acetylation in the spinal dorsal horn (acetylated α-tubulin) | incidence of pain behavior ([4]; 10 mg/kg/day IP for 7 days, starting 3 h post-injury, vehicle-treated control 75%) [%] | onset of excessive grooming pain behaviors ([4]; 10 mg/kg/day IP once daily for 7 days, starting 3 h post-QUIS, vehicle average onset 11 days, n=10) | size of the grooming area (skin damage) ([4]; 10 mg/kg/day for one week post-excitotoxic injury, vs vehicle, p<0.001) | severity of grooming class ([4]; 10 mg/kg/day for one week post-excitotoxic injury, vs vehicle, p<0.01)
1 | COC(=O)Nc1nc2cc(C(=O)c3ccc(F)cc3)ccc2[nH]1 [FluBZ, Flubendazole] | significantly suppressed | significantly reduced | poorly soluble | significantly decreased | significantly inhibited | very low | significantly decreased | 40 | 19 days after excitotoxic injury | significant reduction | significant reduction
2 | COC(=O)Nc1nc2ccc(Sc3ccccc3)cc2[nH]1 [FBZ, fenbendazole] |  |  | poorly soluble |  |  | very low |  |  |  |  | 
